Laboratory results taken from patent publication US12559449B2, “Aromatic ring or heteroaromatic ring derivatives, preparation method therefor and use thereof” (ZHEJIANG HISUN PHARMACEUTICAL CO., LTD., priority 2019, dated 2026).
Read-outs that look alike come from different tables or passages of the source.

Legend:
[1] = biological target: T1, human AT2R (Homo sapiens, UniProt P50052); assay: Antagonistic activity on the binding of human AT2R ligand (Tag-lite HTRF ligand binding, Tb-labeled-AT2R cells); conditions: red agonist fluorescent ligand, 1 hour room temperature
T1 construct: Tb (terbium) label on the receptor; expressed in transfected cells
T1 sequence (P50052 1-363): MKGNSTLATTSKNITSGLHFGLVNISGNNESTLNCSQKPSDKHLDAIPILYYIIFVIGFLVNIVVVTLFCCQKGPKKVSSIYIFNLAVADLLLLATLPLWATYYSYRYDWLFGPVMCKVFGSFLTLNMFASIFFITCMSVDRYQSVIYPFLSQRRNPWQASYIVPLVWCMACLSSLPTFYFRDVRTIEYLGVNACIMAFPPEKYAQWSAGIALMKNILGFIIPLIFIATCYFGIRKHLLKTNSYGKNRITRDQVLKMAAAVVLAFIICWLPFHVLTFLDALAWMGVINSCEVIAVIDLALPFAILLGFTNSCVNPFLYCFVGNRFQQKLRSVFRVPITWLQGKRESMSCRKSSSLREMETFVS
Method: Test Example 1 Test of the Antagonistic Activity of the Compound of the Present Disclosure on the Binding of Human AT2R Ligand
Angiotensin II Type 2 Receptor (AT2R) is involved in neuron differentiation and regeneration, cell proliferation and angiogenesis, and maintenance of bone mass. […] The following method uses the AT2 ligand binding test to study the degree of antagonism of the compounds of the present disclosure to AT2R.
2. Reagent Preparation • (1) 10 mM of angiotensin II human: 10 mg of Angiotensin II human (purity 99.09%) was dissolved in 0.947 mL of deionized water, aliquoted and stored at −80° C.; • (2) Preparation of compound stock solution
3. […] 4. Experimental Results

[2] = biological target: T2, AT1R (Homo sapiens, UniProt P30556); assay: Antagonistic activity on AT1R, same method with Tb-labeled-AT1R cells; format: binding
T2 construct: Tb (terbium) label on the receptor; expressed in transfected cells
T2 sequence (P30556 1-359): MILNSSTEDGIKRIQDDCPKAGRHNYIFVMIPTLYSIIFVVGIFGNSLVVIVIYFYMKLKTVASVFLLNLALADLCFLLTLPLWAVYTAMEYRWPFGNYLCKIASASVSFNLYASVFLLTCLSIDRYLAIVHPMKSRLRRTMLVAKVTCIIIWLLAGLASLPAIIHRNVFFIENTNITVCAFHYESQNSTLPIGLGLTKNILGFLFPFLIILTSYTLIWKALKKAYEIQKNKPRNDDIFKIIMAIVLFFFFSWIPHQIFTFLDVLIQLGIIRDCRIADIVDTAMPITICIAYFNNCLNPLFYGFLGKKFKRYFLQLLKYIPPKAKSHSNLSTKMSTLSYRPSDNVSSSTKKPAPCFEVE

[3] = Metabolic stability in rat liver microsomes; format: in vitro ADME; conditions: pH 7.4; rat liver microsomes 0.5 mg/mL, 1 μM compound, NADPH 1 mM, 0-60 min; read-out: half-life/(T1/2, min)
Method: Test Example 2. Study on the Metabolic Stability of the Compounds of the Present Disclosure in Rat Liver Microsomes
The purpose of this experimental study is to study the metabolic stability of the compounds of the present disclosure in rat liver microsomes.
The test compounds were co-incubated with rat liver microsomes, and the coenzyme NADPH was added to initiate the reaction. At 0, 5, 15, 30, and 60 minutes, 20 μL of incubation solution was taken out and transferred to 200 μL of acetonitrile containing internal standard to stop the reaction. After protein precipitation, it was centrifuged at 3,700 rpm for 10 minutes. The supernatant was taken and analyzed by LC-MS/MS method after being diluted at 1:1 with water. According to the elimination half-life of the test compound in the incubation system, the in vitro clearance rate was calculated. Midazolam was used as the internal reference compound and incubated for 2 copies in parallel.
The ratio of analyte/internal standard peak area (Aanalyte/AIS) was obtained from the instrument, and the remaining percentage (% Control) was calculated as the ratio of Aanalyte/AIS in the non-zero time point sample to the zero time point sample. Ln (% Control) versus incubation time was plotted and subjected to a linear fitting. The clearance constant (k, min-) and clearance half-life (T1/2, min) of the test compounds were calculated by the following equations.
[formula] 4. Experimental Results

[4] = Pharmacokinetics in SD rats, intravenous injection or intragastric administration; format: in vivo; conditions: for half-life / MRT / bioavailability / Cmax: male, Sprague-Dawley, rat, plasma; for half-life: read-out: half-life T1/2 (converted); for MRT: read-out: residence time MRT; for bioavailability: read-out: bioavailability F; for Cmax: read-out: drug concentration in blood, Cmax
From the text: Test Example 3. Study on Oral Pharmacokinetics of the Compounds of the Present Disclosure in SD Rats
SD rats were taken as the test animals. The LC/MS/MS method was used to determine the intravenous injection or intragastric administration of the compounds of the present disclosure in rats, and to determine the drug concentration in plasma at different time points to study the pharmacokinetic characteristics of the compounds of the present disclosure in rats.
Experimental drugs: Olodanrigan, compounds 12, 14, 15 and 16 of the present disclosure;
Animals: 30 healthy adult Sprague Dawley (SD) male rats, purchased from Weitong Lihua Experimental Animal Technology Co. Ltd., production license number: 11400700271077.
An appropriate amount of samples were weighed, and added with DMA, solutol HS 15 (30%, w/v) and normal saline respectively, and then subjected to ultrasound and filtered through PTFE membrane to make a 0.2 mg/mL solution.
An appropriate amount of samples were weighed, added with 0.5% sodium carboxymethyl cellulose (CMC-Na) (containing 0.5% Tween 80), and ultrasonically prepared into a 1 mg/mL suspension. […]
About 0.2 mL of blood was collected from the jugular vein before administration and at 0.083 hours, 0.25 hours, 0.5 hours, 1 hour, 2 hours, 4 hours, 8 hours, 12 hours, and 24 hours after administration, and heparin sodium was used for anticoagulation. The blood samples were collected on ice and centrifuged to separate the plasma (centrifugation conditions: 1500 g, 10 minutes). The collected plasma was stored at −40 to −20° C. before analysis.
10 μL of plasma sample was taken and added with 400 μL of acetonitrile (comprising internal standard working solution which contained verapamil 5 ng/mL and glibenclamide 50 ng/mL). It was vortexed for 10 minutes, centrifuge at 3700 rpm for 10 minutes. 70 μL of the supernatant was taken and added with 70 μL of water, and vortexed for 10 minutes. 2 μL of the mixed solution was taken and injected into LC-MS/MS for sample analysis.

[5] = oral (3 mg/kg) versus injection (1 mg/kg)
[6] = 3 mg/kg, oral (mg/kg), dose not given
[7] = oral (mg/kg), dose figure not given, versus injection (1 mg/kg)

Row | Structure (SMILES) | IC50 [1] [nM] | IC50 [2] [µM] | half-life at 1 μM [3] [min] | area under curve AUO0-∞ ([4]; injection (1 mg/kg)) [ng·h/mL] | half-life ([4]; iv, injection (1 mg/kg)) [h] | MRT ([4]; iv, injection (1 mg/kg)) [h] | bioavailability [4, 5] [%] | Cmax ([4]; oral (3 mg/kg)) [ng/mL] | half-life ([4]; oral (3 mg/kg)) [h] | MRT ([4]; oral (3 mg/kg)) [h] | area under curve AUO0-∞ ([4]; oral (3 mg/kg)) [ng·h/mL] | Cmax [4, 6] [ng/mL] | half-life [4, 6] [h] | MRT [4, 6] [h] | bioavailability [4, 7] [%] | area under curve AUO0-∞ ([4]; oral (mg/kg), dose not given) [ng·h/mL]
1 | CN(C(=O)C(c1ccccc1)c1ccccc1)c1ccc(N2CCCOc3ccc(F)cc32)nc1C(=O)O [Compound 8, 6-(7-fluoro-3,4-dihydrobenzo[b][1,4]oxazepine-5(2H)-yl)-3-(N-methyl-2,2-diphenylacetamido)picolinic acid] | 28 | > 10 |  |  |  |  |  |  |  |  |  |  |  |  |  | 
2 | CN(C(=O)C(c1ccccc1)c1ccccc1)c1cnc(N2CCCOc3ccc(F)cc32)cc1C(=O)O [Compound 5, 2-(7-fluoro-3,4-dihydrobenzo[b][1,4]oxazepine-5(2H)-yl)-5-(N-methyl-2,2-diphenylacetamido)isonicotinic acid] | 10 | > 10 |  |  |  |  |  |  |  |  |  |  |  |  |  | 
3 | CN(C(=O)C(c1ccccc1)c1ccccc1)c1ccc(N2CCCOc3ccc(F)cc32)cc1C(=O)O [Compound 4, 5-(7-fluoro-3,4-dihydrobenzo[b][1,4]oxazepine-5(2H)-yl)-2-(N-methyl-2,2-diphenylacetamido)benzoic acid] | 37 | > 10 | 185 |  |  |  |  |  |  |  |  |  |  |  |  | 
4 | O=C(O)c1cc(N2CCCOc3ccc(F)cc32)ncc1-c1nc2ccccc2o1 [Compound 12, 5-(benzo[d]oxazol-2-yl)-2-(7-fluoro-3,4-dihydrobenzo[b][1,4]oxazepine-5(2H)-yl)isonicotinic acid] |  |  | 288 | 16200 ± 3530 | 8.1 ± 2.1 | 7.3 ± 1.5 | 83.1 | 8650 ± 6020 | 4.7 ± 0.3 | 6.1 ± 0.5 | 40400 ± 14272 |  |  |  |  | 
5 | O=C(O)c1cc(N2CCCOc3ccc(F)cc32)ncc1-c1nc2cc(F)ccc2o1 [Compound 14, 2-(7-fluoro-3,4-dihydrobenzo[b][1,4]oxazepine-5(2H)-yl)-5-(5-fluorobenzo[d]oxazol-2-yl)isonicotinic acid] |  |  | 600 | 13800 ± 1370 | 4.7 ± 0.4 | 4.5 ± 0.2 | 105 | 14300 ± 5130 | 3.6 ± 0.2 | 4.7 ± 0.3 | 43400 ± 11173 |  |  |  |  | 
6 | COc1ccc2c(c1OCc1ccccc1)C[C@@H](C(=O)O)N(C(=O)C(c1ccccc1)c1ccccc1)C2 [olodanrigan, reference compound] |  | > 10 | 96.3 | 1230 ± 96 | 1.6 ± 0.3 | 0.92 ± 0.16 |  |  |  |  |  | 470 ± 197 | 1.5 ± 0.3 | 2.6 ± 1 | 12.1 | 1483 ± 715
7 | CN(C(=O)C(c1ccccc1)c1ccccc1)c1cnc(N2CCCOc3cc(F)c(F)cc32)cc1C(=O)O [Compound 6, 2-(7,8-difluoro-3,4-dihydrobenzo[b][1,4]oxazepine-5(2H)-yl)-5-(N-methyl-2,2-diphenylacetamido)isonicotinic acid] | 26 | > 10 |  |  |  |  |  |  |  |  |  |  |  |  |  | 
8 | O=C(O)c1cc(N2CCCOc3ccc(F)cc32)ncc1-c1nc2ccc(F)cc2o1 [Compound 15, 2-(7-fluoro-3,4-dihydrobenzo[b][1,4]oxazepine-5(2H)-yl)-5-(6-fluorobenzo[d]oxazol-2-yl)isonicotinic acid] |  |  | 160 | 12100 ± 751 | 4.5 ± 0.4 | 4.5 ± 0.4 | 89.9 | 7050 ± 2640 | 4.2 ± 0.4 | 5.2 ± 0.4 | 32400 ± 6514 |  |  |  |  | 
9 | N#Cc1ccc2nc(-c3cnc(N4CCCOc5ccc(F)cc54)cc3C(=O)O)oc2c1 [Compound 16, 5-(6-cyanobenzo[d]oxazol-2-yl)-2-(7-fluoro-3,4-dihydrobenzo[b][1,4]oxazepine-5(2H)-yl)isonicotinic acid] |  |  | 598 | 20800 ± 1740 | 3.3 ± 0.2 | 3.2 ± 0.3 |  |  |  |  |  | 5250 ± 315 | 3.7 ± 0.4 | 5.5 ± 0.4 | 41.3 | 25800 ± 6100
